This note sets out measurements from patent US10064861B2, “Macrocyclic pyridazinone derivatives” (Merck Patent GmbH, priority 2013, dated 2018).

pIC50: −log10 of the molar value. Like-named read-outs stand apart in the source and are kept apart here. Where only a bound is given, the exact number is not on record here.

The conditions of series [1]: amide bond, DMF, 25.0 °C.
For series [2] the following is noted: amide bond, DMF, 25.0 °C. The source holds these as a separate data set.
The target of the next series is IRAK1 (Homo sapiens (Human), UniProt P51617). Nature of the series: IRAK1 enzymatic assay. It is filed as biochemical. Conditions: His-TEV-IRAK-1, ATP 1 μM, 3 hours at 30° C. The procedure: IRAK1 is a human purified recombinant enzyme (His-TEV-IRAK1 (194-712)) In this assay, IRAK-1 hydrolyses ATP and autophosphorylates.
Measurement of IRAK-1 inhibition is performed in streptavidin coated 384 well FlashPlate (PerkinElmer #SMP410A).
His-TEV-IRAK-1 (15 ng/well), ATP (1 μM, [^33P]ATP 0.25 μCi/well) and compounds in DMSO (range of concentrations from 20 μM to 1 nM) or controls (2% DMSO) are incubated for 3 hours at 30° C. in assay buffer: Hepes pH 7.0 50 mM, Fatty acid-free BSA 0.1%, Dithiothreitol DTT 2 mM, MgCl2 10 mM, EGTA 0.5 mM, Triton-X-100 0.01%. Kinase reaction is stopped by addition of EDTA. Supernatant is discarded, plates are washed three times with 150 mM NaCl and radioactivity is then measured in a Microbeta Trilux reader.

A further series has as its target IRAK4 (Homo sapiens (Human), UniProt Q9NWZ3). Nature of the series: IRAK4 enzymatic assay. It is filed as biochemical. Conditions: His-TEV-IRAK4, ATP 2 μM, STK1-biotin peptide 300 nM, 3 hours at 30° C. The procedure:
IRAK4 is a human purified recombinant enzyme (His-TEV-IRAK1 (194-712) IRAK4 hydrolyses ATP, autophosphorylates and phosphorylates a Serine/Threonine generic peptidic substrate (STK: 61ST1BLC from CisBio International based in Bagnols/Cèze FR).
Measurement of IRAK-4 inhibition is performed in streptavidin coated 384 well FlashPlate (PerkinElmer #SMP410A). His-TEV-IRAK4 (20 ng/well), ATP (2 μM, [^33P]ATP 0.25 μCi/well), STK1-biotin peptide (300 nM) and compounds in DMSO (range of concentrations from 20 μM to 1 nM) or controls (2% DMSO) are incubated for 3 hours at 30° C. in assay buffer: Hepes pH 7.0 50 mM, Fatty acid-free BSA 0.1%, Dithiothreitol DTT 2 mM, MgCl2 10 mM, EGTA 0.5 mM, Tween-20 0.01%, MnCl2 5 mM.
Kinase reaction is stopped by addition of EDTA. Supernatant is discarded, plates are washed three times with 150 mM NaCl and radioactivity is then measured in a Microbeta Trilux reader.

In series [3] the test system is TLR7 induced IL-6 secretion in human mononuclear cells (PBMC's). Nature of the series: TLR7 induced IL-6 in human PBMC's. It is filed as cell-based. Conditions: TLR7 specific ligand 2 uM overnight, IL-6 AlphaLISA. How it is done: TLR7 Induced IL-6 in Human PBMC's
Human PBMC assay is used as one of the functional assay to monitor the activity of IRAK1 and IRAK4 small molecule inhibitors on TLR7 induced IL-6 secretion in human mononuclear cells (PBMC's). Human PBMCs are prepared from buffy coats (whole blood enriched with leukocytes and platelets) obtained from healthy volunteers used either fresh or frozen are plated in assay media (RPMI+2% P/S/L-glu+10% HI-FBS) and pre-treated with compounds in DMSO/media (range of concentrations from 25 μM to 0.4 nM) or controls (0.25% DMSO) for 30 minutes at 37° C. in assay media. Following pre-treatment with IRAK1 and IRAK4 inhibitors, PBMC's are stimulated with TLR7 specific ligand (2 uM) overnight (16-18 hrs) at 37° C. After incubation supernatant is transferred to 384 well PE AlphaPlate-384 (6005350) and IL-6 is quantified using Perkin Elmer IL-6 Alpha LISA kit (AL223C). Plates are read on an Envision® plate reader with Alpha Technology®.
Background: Bead proximity is the source of the signal in Alpha formats.

Chain of IRAK1 (P51617 194-712): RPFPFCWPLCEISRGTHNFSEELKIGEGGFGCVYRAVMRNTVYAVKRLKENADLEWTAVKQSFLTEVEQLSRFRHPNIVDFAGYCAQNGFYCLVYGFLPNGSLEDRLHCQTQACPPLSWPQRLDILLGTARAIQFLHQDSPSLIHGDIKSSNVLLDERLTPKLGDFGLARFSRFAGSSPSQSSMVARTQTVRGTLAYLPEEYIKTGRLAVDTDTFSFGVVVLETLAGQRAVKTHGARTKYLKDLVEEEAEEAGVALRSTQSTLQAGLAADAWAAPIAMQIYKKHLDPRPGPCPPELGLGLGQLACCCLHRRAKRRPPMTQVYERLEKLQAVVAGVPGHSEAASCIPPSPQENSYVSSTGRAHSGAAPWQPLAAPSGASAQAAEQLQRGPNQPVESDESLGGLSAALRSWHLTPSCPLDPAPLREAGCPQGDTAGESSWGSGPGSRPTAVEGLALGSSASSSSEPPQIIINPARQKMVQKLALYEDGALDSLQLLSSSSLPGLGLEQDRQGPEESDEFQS
Chain of IRAK4 (Q9NWZ3 whole entry): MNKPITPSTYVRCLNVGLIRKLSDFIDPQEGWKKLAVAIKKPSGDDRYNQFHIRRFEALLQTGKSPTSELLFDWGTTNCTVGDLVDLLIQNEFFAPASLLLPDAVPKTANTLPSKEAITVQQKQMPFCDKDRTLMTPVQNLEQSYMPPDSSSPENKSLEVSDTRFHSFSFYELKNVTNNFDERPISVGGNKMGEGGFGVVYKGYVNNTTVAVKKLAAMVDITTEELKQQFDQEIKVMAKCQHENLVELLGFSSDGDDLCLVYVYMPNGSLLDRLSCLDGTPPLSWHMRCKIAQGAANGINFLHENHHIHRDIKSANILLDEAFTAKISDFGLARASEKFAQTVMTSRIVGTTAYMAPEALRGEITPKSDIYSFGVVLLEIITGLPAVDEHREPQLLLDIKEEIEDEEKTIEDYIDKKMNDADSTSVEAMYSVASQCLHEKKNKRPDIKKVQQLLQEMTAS

Usually pIC50 stands for −log10 of the IC50, conventionally taken in molar units. In series [1] (from Nc1nc2ccccc2n1CC(O)CCOc1ccc(=O)n(Cc2cccc(C(=O)O)c2)n1, HATU/HOAt/DMAP/DIPEA, 2.44 mM, 14.0 h), `O=C1Nc2nc3ccccc3n2CC(O)CCOc2ccc(=O)n(n2)Cc2cccc1c2` (centres unmarked) [Compound 18, 20-hydroxy-23-oxa-1,9,11,18,28-pentaazapentacyclo[22.3.1.1^3,7.0^10,18.0^12,17]nonacosa-3,5,7(29),10,12(17),13,15,24(28),25-nonaene-8,27-dione] returned a ring closure, yield of all isomers of 7%. This compound had a ring closure, isolated yield in series [2] (from potassium 3-{3-[4-(2-Amino-benzoimidazol-1-yl)-3-hydroxy-butoxy]-6-oxo-6H-pyridazin-1-ylmethyl}-benzoic acetate, 16-membered ring, HATU/HOAt/DMAP/DIEA, 2.4 mM) of 7%. The pIC50 against IRAK1 was over 7.00; against IRAK4 it was over 7.00; in series [3], 6.00 to 7.00.
As to `O=C1Nc2nc3ccccc3n2C[C@H](O)[C@H]2CCCN(C2)c2ccc(=O)n(n2)Cc2cccc1c2` (stereo in doubt) [Compound 32b, 25-hydroxy-1,6,14,16,23,32-hexaazahexacyclo[24.3.1.1^2,6.1^8,12.0^15,23.0^17,22]dotriaconta-2(32),3,8(31),9,11,15,17(22),18,20-nonaene-5,13-dione], the pIC50 against IRAK1 is over 7.00; against IRAK4 it was over 7.00; in series [3], 6.00 to 7.00.
`O=C1Nc2nc3ccccc3n2Cc2cc(ccc2O)-c2ccc(=O)n(n2)Cc2cccc1c2` [Compound 20, 5-hydroxy-8,15,17,25,29-pentaazahexacyclo[23.3.1.1^2,6.1^19,23.08,16.0^9,14]hentriaconta-1(29),2(31),3,5,9(14),10,12,15,19(30),20,22,27-dodecaene-18,26-dione]: the pIC50 (at IRAK1; against IRAK4; in series [3]) was over 7.00 each time.
For the compound `O=C1Nc2nc3ccccc3n2Cc2cccc(c2)-c2ccc(=O)n(n2)Cc2cccc1c2` [Compound 1, 8,15,17,25,29-pentaazahexacyclo[23.3.1.1^2,61^19,230^8,160^9,14]hentriaconta-1(29),2(31),3,5,9(14),10,12,15,19(30),20,22,27-dodecaene-18,26-dione], the ring closure, yield of all isomers in series [1] (from Nc1nc2ccccc2n1Cc1cccc(-c2ccc(=O)n(Cc3cccc(C(=O)O)c3)n2)c1, HBTU/HOBt/N-methylmorpholine, 10.0 mM, 15.0 h) was determined as 26%. This compound returned a ring closure, isolated yield in series [2] (from Nc1nc2ccccc2n1Cc1cccc(-c2ccc(=O)n(Cc3cccc(C(=O)[O-])c3)n2)c1, 15-membered ring, HBTU/HOBt/NMM, 10.0 mM) of 26%. Also, the figures for the pIC50 (against IRAK1; against IRAK4; in series [3]) were over 7.00, over 7.00 and 6.00 to 7.00, respectively.
In turn, `O=C1Nc2nc3ccccc3n2CC(O)C2CCCN(C2)c2ccc(=O)n(n2)Cc2cccc1c2` (centres unmarked) registered a ring closure, isolated yield in series [2] (from Nc1nc2ccccc2n1CC(O)C1CCCN(c2ccc(=O)n(Cc3cccc(C(=O)[O-])c3)n2)C1, 16-membered ring, HATU/HOAt/DMAP/DIEA, 1.27 mM) of 16%.
Take `CC(=O)NCCc1ccc2c(c1)nc1n2Cc2cccc(c2)-c2ccc(=O)n(n2)Cc2cccc(c2)C(=O)N1` [Compound 25]: the pIC50 (at IRAK1; on IRAK4; in series [3]) was over 7.00 each time.
For the compound `O=C1Nc2nc3ccccc3n2CCc2cccc(c2)-c2ccc(=O)n(n2)Cc2cccc1c2` [Compound 2, 6,14,16,23,32-pentaazahexacyclo[24.3.1.1^2,6.1^8,12.0^15,23.0^17,22]dotriaconta-1(30),2(32),3,8,10,12(31),15,17(22),18,20,26,28-dodecaene-5,13-dione], the pIC50 against IRAK1 is over 7.00; against IRAK4, over 7.00; in series [3], 6.00 to 7.00.
As to `O=C1Nc2nc3ccccc3n2CC(O)c2cccc(c2)-c2ccc(=O)n(n2)Cc2cccc1c2` (centres unmarked) [Compound 17], the pIC50 (on IRAK1; against IRAK4; in series [3]) was over 7.00 in each case.
As for `COc1cc2nc3n(c2cc1OC)Cc1cccc(c1)-c1ccc(=O)n(n1)Cc1cccc(c1)C(=O)N3` [Compound 5, 11,12-dimethoxy-8,15,17,25,29-pentaazahexacyclo[23.3.1.1^2,61^19,23.0^8,16.0^9,14]hentriaconta-1(29),2(31),3,5,9(14),10,12,15,19(30),20,22,27-dodecaene-18,26-dione], the pIC50 (against IRAK1; against IRAK4; in series [3]) was over 7.00 throughout.
Consider `O=C1Nc2nc3ccccc3n2Cc2cc(ccn2)-c2ccc(=O)n(n2)Cc2cccc1c2` [Compound 16], for which the pIC50 (at IRAK1; against IRAK4; in series [3]) was over 7.00 each time.
On to `O=C(O)c1ccc2c(c1)nc1n2Cc2cccc(c2)-c2ccc(=O)n(n2)Cc2cccc(c2)C(=O)N1` [Compound 21], for which the pIC50 against IRAK1 was over 7.00; at IRAK4, over 7.00; in series [3], 6.00 to 7.00.
`Cc1ccc2cc1-c1ccc(=O)n(n1)Cc1cccc(c1)C(=O)Nc1nc3ccccc3n1C2` [Compound 8, 3-Methyl-8,15,17,25,29-pentaazahexacyclo[23.3.1.1^2,61^19,230^8,160^9,14]hentriaconta-1(29),2(31),3,5,9(14),10,12,15,19(30),20,22,27-dodecaene-18,26-dione]: the pIC50 against IRAK1 is over 7.00; against IRAK4, over 7.00; in series [3], 6.00 to 7.00.
Regarding `O=C1Nc2nc3ccccc3n2C[C@H](O)[C@@H]2CCCN(C2)c2ccc(=O)n(n2)Cc2cccc1c2` (stereo in doubt) [Compound 32a, 25-hydroxy-1,6,14,16,23,32-hexaazahexacyclo[24.3.1.1^2,6.1^8,12.0^15,23.0^17,22]dotriaconta-2(32),3,8(31),9,11,15,17(22),18,20-nonaene-5,13-dione], the figures for the pIC50 (against IRAK1; at IRAK4; in series [3]) were over 7.00, over 7.00 and 6.00 to 7.00, respectively.
On to `O=C1Nc2nc3ccccc3n2Cc2ccc(O)c(c2)-c2ccc(=O)n(n2)Cc2cccc1c2` [Compound 12, 3-hydroxy-8,15,17,25,29-pentaazahexacyclo[23.3.1.1^2,6.1^19,23.0^8,16.0^9,14]hentriaconta-1(29),2(31),3,5,9(14),10,12,15,19(30),20,22,27-dodecaene-18,26-dione], for which the values for the pIC50 (on IRAK1; at IRAK4; in series [3]) were over 7.00, over 7.00 and 5.30 to 6.00, respectively.
